Source: ChEMBL document CHEMBL5096232, “Exploring the NCS-382 Scaffold for CaMKIIα Modulation: Synthesis, Biochemical Pharmacology, and Biophysical Characterization of Ph-HTBA as a Novel High-Affinity Brain-Penetrant Stabilizer of the CaMKIIα Hub Domain” (J Med Chem, 2022)
Values belong to the molecule of their own block, whether it stands above or below them. Calls of active or inactive are those of the source. No cut-off for these calls is given here.

Legend:
[1] = biological target: T1, Calcium/calmodulin-dependent protein kinase type II subunit alpha (Rattus norvegicus, UniProt P11275); experiment: Displacement of [3H]NCS-382 from CaMK2alpha in rat brain cortical membrane homogenates measured after 1 hr by TopCount scintillation counting method; format: cell membranes, Cortex
[2] = biological target: T1, Calcium/calmodulin-dependent protein kinase type II subunit alpha; experiment: Displacement of [3H]HOCPCA from recombinant rat CaMK2alpha expressed in HEK293T cells measured after 1 hr by liquid scintillation counting method; format: cell-based
[3] = biological target: T2, Calcium/calmodulin-dependent protein kinase type II subunit alpha (Homo sapiens, UniProt Q9UQM7); conditions: filed as modulator
Description: Binding affinity to recombinant human CaMK2alpha 6x hub domain (345 to 475 residues) expressed in Escherichia coli BL21 DE3 assessed as dissociation rate constant by surface plasmon resonance assay

[4] = biological target: T2, Calcium/calmodulin-dependent protein kinase type II subunit alpha; experiment: Binding affinity to recombinant human CaMK2alpha 6x hub domain (345 to 475 residues) expressed in Escherichia coli BL21 DE3 assessed as dissociation constant by surface plasmon resonance assay
[5] = biological target: T2, Calcium/calmodulin-dependent protein kinase type II subunit alpha; experiment: Binding affinity to recombinant human CaMK2alpha 6x hub domain (345 to 475 residues) expressed in Escherichia coli BL21 DE3 assessed as thermal stability by measuring change in melting temperature at 5 to 1280 uM by SYPRO orange dye based differential scanning fluorimetry; conditions: dose 5-1280 µM
[6] = biological target: T1, Calcium/calmodulin-dependent protein kinase type II subunit alpha; experiment: Displacement of [3H]HOCPCA from native CaMK2alpha in rat brain cortical membrane homogenates measured after 1 hr by TopCount scintillation counting method; format: cell membranes, Cortex
[7] = biological target: T2, Calcium/calmodulin-dependent protein kinase type II subunit alpha; experiment: Binding affinity to recombinant human CaMK2alpha 6x hub domain (345 to 475 residues) Trp403 residue assessed as quenching of intrinsic tryptophan fluorescence at 9.8 to 29 uM by Trp flip assay; conditions: filed as modulator, dose 9.8-29 µM
[8] = Unbound brain-to-plasma partition coefficient in C57BL/6J mouse at 10 mg/kg, po measured at 30 mins by HPLC-MS/MS analysis; format: ADME, organism-based; conditions: read-out: K(p,uu,brain)
BCRP [9] = experiment: Apparent permeability across apical to basolateral side in MDCK-II-BCRP cells at 3 uM preincubated with BCRP inhibitor, Ko 143 for 15 to 30 mins followed by compound addition and measured after 60 to 90 mins by LC-MS/MS analysis; format: ADME, cell-based, Canis lupus familiaris; conditions: dog, with Ko 143 (BCRP inhibitor; concentration not stated), time 60-90 min
[10] = Metabolic stability in human hepatocytes assessed as intrinsic clearance per 10^6 cells at 0.5 uM incubated in presence of NADPH regenerating system and measured for 120 mins by LC-MS/MS analysis; format: ADME, cell-based, Hepatocyte; conditions: read-out: CLH
MDR1 (P-gp) [11] = experiment: Apparent permeability across basolateral to apical side in MDCKII-MDR1 cells at 3 uM preincubated with P-gp/BCRP transporter dual inhibitor, elacridar for 15 to 30 mins followed by compound addition and measured after 60 to 90 mins by LC-MS/MS analysis; format: ADME, cell-based, Canis lupus familiaris, MDCK-MDR1; conditions: dog, time 60-90 min
[12] = Metabolic stability in human liver microsomes assessed as intrinsic clearance per mg of protein at 0.5 uM incubated in presence of NADPH regenerating system and measured for 45 mins by LC-MS/MS analysis; format: ADME, Microsome; conditions: read-out: CLH
MDR1 (P-gp) [13] = experiment: Apparent permeability across apical to basolateral side in MDCKII-MDR1 cells at 3 uM preincubated with P-gp/BCRP transporter dual inhibitor, elacridar for 15 to 30 mins followed by compound addition and measured after 60 to 90 mins by LC-MS/MS analysis; format: ADME, cell-based, Canis lupus familiaris, MDCK-MDR1; conditions: dog, time 60-90 min
BCRP [14] = experiment: Apparent permeability across apical to basolateral side in MDCK-II-BCRP cells at 3 uM measured after 60 to 90 mins by LC-MS/MS analysis; format: ADME, cell-based, Canis lupus familiaris; conditions: dog, time 60-90 min
BCRP [15] = experiment: Apparent permeability across basolateral to apical side in MDCK-II-BCRP cells at 3 uM measured after 60 to 90 mins by LC-MS/MS analysis; format: ADME, cell-based, Canis lupus familiaris; conditions: dog, time 60-90 min
MDR1 (P-gp) [16] = experiment: Apparent permeability across apical to basolateral side in MDCKII-MDR1 cells at 3 uM measured after 60 to 90 mins by LC-MS/MS analysis; format: ADME, cell-based, Canis lupus familiaris; conditions: dog, MDCK-MDR1, time 60-90 min
[17] = Half life in ip dosed mouse; format: ADME, organism-based; conditions: in vivo
[18] = Metabolic stability in mouse liver microsomes assessed as intrinsic clearance per mg of protein at 0.5 uM incubated in presence of NADPH regenerating system and measured for 45 mins by LC-MS/MS analysis; format: ADME, Microsome; conditions: read-out: CLH
[19] = Ratio of drug concentration in brain to plasma in C57BL/6J mouse at 10 mg/kg, po measured at 30 mins by HPLC-MS/MS analysis; format: ADME, organism-based; conditions: read-out: BPR
[20] = Drug concentration in C57BL/6J mouse plasma at 10 mg/kg, po by HPLC-MS/MS analysis; format: ADME, organism-based; conditions: in vivo
[21] = Drug concentration in C57BL/6J mouse brain at 10 mg/kg, po by HPLC-MS/MS analysis; format: ADME, organism-based; conditions: in vivo
BCRP [22] = experiment: Apparent permeability across basolateral to apical side in MDCK-II-BCRP cells at 3 uM preincubated with BCRP inhibitor, Ko 143 for 15 to 30 mins followed by compound addition and measured after 60 to 90 mins by LC-MS/MS analysis; format: ADME, cell-based, Canis lupus familiaris; conditions: dog, with Ko 143 (BCRP inhibitor; concentration not stated), time 60-90 min
MDR1 (P-gp) [23] = experiment: Apparent permeability across basolateral to apical side in MDCKII-MDR1 cells at 3 uM measured after 60 to 90 mins by LC-MS/MS analysis; format: ADME, cell-based, Canis lupus familiaris; conditions: dog, MDCK-MDR1, time 60-90 min
[24] = Metabolic stability in mouse hepatocytes assessed as intrinsic clearance per 10^6 cells at 0.5 uM incubated in presence of NADPH regenerating system and measured for 120 mins by LC-MS/MS analysis; format: ADME, cell-based, Hepatocyte; conditions: read-out: CLH

T2 sequence (Q9UQM7 whole entry, the tested form may be a part): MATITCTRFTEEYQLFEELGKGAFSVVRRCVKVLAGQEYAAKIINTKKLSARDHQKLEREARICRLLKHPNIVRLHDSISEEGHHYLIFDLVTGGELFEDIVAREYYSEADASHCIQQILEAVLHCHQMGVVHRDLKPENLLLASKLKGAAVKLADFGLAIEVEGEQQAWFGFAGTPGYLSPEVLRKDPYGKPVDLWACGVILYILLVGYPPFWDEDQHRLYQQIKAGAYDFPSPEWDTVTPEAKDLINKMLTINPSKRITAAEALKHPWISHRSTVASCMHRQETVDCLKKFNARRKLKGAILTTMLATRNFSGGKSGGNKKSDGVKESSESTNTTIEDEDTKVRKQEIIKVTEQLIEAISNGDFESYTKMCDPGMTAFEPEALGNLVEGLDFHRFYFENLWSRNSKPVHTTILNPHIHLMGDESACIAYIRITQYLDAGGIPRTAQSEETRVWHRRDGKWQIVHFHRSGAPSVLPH
T1 sequence (P11275 whole entry): as the sequence (Q9UQM7 whole entry, the tested form may be a part) above, with S324N counted along it

- Ki [1]: 0.23 µM
SMILES: O=C(O)/C=C1\CCCc2c(Br)cccc2C1O (stereo unspecified)

- Ki [2]: 3.9 µM
- Kdiss [3]: 0.75 s⁻¹
- Kd [4]: 8.9 µM
- ΔTm [5]: 16.7 °C
- Ki [1]: 0.34 µM
- Ki [6]: 0.59 µM
SMILES: O=C(O)/C=C1\CCCc2ccccc2C1O (stereo unspecified)

- Ki [1]: 14 µM
SMILES: O=C(O)/C=C1\CCCc2ccc(-c3ccccc3)cc2C1O (stereo unspecified)

- Ki [1]: 0.11 µM
SMILES: O=C(O)/C=C1\CCCc2cc(F)ccc2C1O (stereo unspecified)

- Ki [1]: 0.11 µM
SMILES: O=C(O)/C=C1\CCCc2c(/C=C/c3c(Cl)cccc3Cl)cccc2C1O (stereo unspecified)

- Ki [1]: 0.056 µM
SMILES: O=C(O)/C=C1\CCCc2c(CCc3ccccc3)cccc2C1O (stereo unspecified)

- Activity [7]: Active
- Ki [1]: 14 µM
- Ki [6]: 0.081 µM
SMILES: O=C(O)/C=C1\CCCc2c(/C=C/c3ccccc3)cccc2C1O (stereo unspecified)

SMILES: O=C(O)C1=CC(O)CC1 (stereo unspecified)
- Ki [2]: 1.8 µM
- Ki [1]: 0.16 µM
- Ki [6]: 0.13 µM

SMILES: O=C(O)/C=C1\CCCc2cc(/C=C/c3ccccc3)ccc2C1O (stereo unspecified)
- Ki [1]: 0.04 µM

- Kp uu at 0.5 h [8]: 0.85
- Papp A→B at 3 µM (BCRP [9]): 15.9 ×10⁻⁶ cm/s
- hepatocyte CLint at 0.5 µM [10]: 8.6 µL/min/1e6 cells
- Papp B→A at 3 µM (MDR1 (P-gp) [11]): 15 ×10⁻⁶ cm/s
- microsomal CLint at 0.5 µM [12]: > 9.9 µL/min/mg
- Papp A→B at 3 µM (MDR1 (P-gp) [13]): 12.9 ×10⁻⁶ cm/s
- Papp A→B at 3 µM (BCRP [14]): 15.8 ×10⁻⁶ cm/s
- Papp B→A at 3 µM (BCRP [15]): 19.4 ×10⁻⁶ cm/s
- Papp A→B at 3 µM (MDR1 (P-gp) [16]): 13 ×10⁻⁶ cm/s
- half-life [17]: 18 min
- microsomal CLint at 0.5 µM [18]: > 9.9 µL/min/mg
- Kp at 0.5 h [19]: 0.1
- Cp [20]: 1450 ng/mL
- Ct [21]: 99.1 ng/mL
- Papp B→A at 3 µM (BCRP [22]): 16.5 ×10⁻⁶ cm/s
- Papp B→A at 3 µM (MDR1 (P-gp) [23]): 16.3 ×10⁻⁶ cm/s
- hepatocyte CLint at 0.5 µM [24]: 65 µL/min/1e6 cells
SMILES: O=C([O-])/C=C1\CCCc2cc(-c3ccccc3)ccc2C1O.[Na+] (stereo unspecified)

- Ki [1]: 0.32 µM
SMILES: Cc1ccc2c(c1)CCC/C(=C\C(=O)O)C2O (stereo unspecified)
